Where two headings read alike, the source gives them in different places.
Columns and labels:
[1] = biological target: T1, cloned α1a-adrenoceptor subtype (Homo sapiens, UniProt P35348); assay: Radioligand binding assay ([3H]prazosin), cloned α1a-adrenoceptor subtype; settings: read-out: Binding Affinity (Ki nM) α1a
T1 construct: expressed in transfected cells
T1 sequence (P35348 1-466): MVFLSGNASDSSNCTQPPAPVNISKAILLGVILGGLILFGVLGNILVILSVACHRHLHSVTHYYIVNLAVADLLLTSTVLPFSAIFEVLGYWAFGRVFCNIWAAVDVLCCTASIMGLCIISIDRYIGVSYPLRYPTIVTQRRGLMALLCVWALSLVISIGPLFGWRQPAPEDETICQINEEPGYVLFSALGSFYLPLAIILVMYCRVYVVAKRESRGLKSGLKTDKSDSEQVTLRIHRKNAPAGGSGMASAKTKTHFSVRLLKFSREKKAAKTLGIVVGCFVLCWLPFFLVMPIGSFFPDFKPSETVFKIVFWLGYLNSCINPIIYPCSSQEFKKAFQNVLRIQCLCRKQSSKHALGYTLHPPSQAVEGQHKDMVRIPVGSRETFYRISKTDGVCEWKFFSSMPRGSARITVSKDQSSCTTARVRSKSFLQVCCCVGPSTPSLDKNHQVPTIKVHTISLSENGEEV
Procedure: (§1) Springer-Verlag, pp. 10-12). […] The results from these assays are used to calculate a measure of receptor selectivity, expressed as the ratio of affinities (Ki) for a given pair of receptors.
(§2) Determination of affinity for cloned subtypes of α1-adrenoceptor subtypes was performed in membranes from cells transfected by electroporation with DNA expressing the genes encoding each α1-adrenoceptor subtype.
(§3) Non-specific binding was determined in the presence of 10 μM phentolamine. Incubation was stopped by addition of ice-cold Tris buffer and rapid filtration through 0.2% polyethyleneimine-pretreated Schleicher & Schuell GF52 filters. […] Data were expressed as mean Ki.

[2] = tested on: conscious rats with partial urethral obstruction; assay: Cystometry in conscious rats obstructed by partial urethra ligature (unstable-bladder contractions); type: in vivo, rat; settings: for inhibition in vivo at 1 mg/kg / inhibition in vivo at 3 mg/kg: 2 min; for Amplitude of non-effective micturition contractions, After Treat. / Frequency (number) of non-effective micturition contractions, After Treat.: after treatment; for Activity as inhibitors of unstable-bladder contractions (in words): obstructed conscious rats, summary of Tables 1 and 2
Description: A useful animal model system for measuring such pharmacological activity is, without limitation, cystometry in conscious rats with partial bladder-neck obstruction. […] This model is reported in the literature as related to LUTS occurring in patients having obstructive urethral syndromes (Michel, 2000, Drugs of Today. 386 (Supp. B2): 3-6)
In order to obtain a partial obstruction of the urethra, the method previously reported by Malgren (Nalgren et al., 1987, J. Urol. 137:1291-1294; 1988, Neurourol. Urodyn. 6:371), was followed with minor modifications (Guarneri et al., 1991, Pharmacol. Res. 24:263).
Female rats of the Sprague-Dawley strain [Crl:CD(SD)BR, from Charles River Italia, Calco, Como, Italy] weighing 225-275 g were used. The animals were maintained in constant temperature and humidity conditions, on a forced 12-hour light-dark cycle and with food and water ad libitum for at least one week before the experiment.
After being anaesthetized with 3 ml/kg i.p. equitensin (pentobarbital 1.215 g, chloral hydrate 5.312 g, magnesium sulphate 2.657 g, ethanol 12.5 ml, propylene glycol 49.5 ml, distilled water to 125 ml of final volume), the rats were placed in a supine position and the bladder and urethra were exposed via an incision in the shaven abdomens and gently pulling away the muscle portion. The urethra was cannulated with a polyethylene tube with an outside diameter of 1.22 mm, and the urinary bladder was then emptied and, via the cannula introduced through the urethra, filled with physiological saline. A silk (Ethicon 3/0) ligature was placed around the urethra with the cannula inside and the intraurethral cannula was then removed. The abdominal incision was sutured and, immediately after the operative procedure, antibiotic medication (penicillin G 200 000 I.U./kg i.p. and streptomycin 260 mg/kg i.p.) was performed.
Three weeks after the procedure for partially obstructing the urethra, the animals were prepared for cystometry by surgical insertion into the bladder of a catheter, through which the bladder was gradually filled.
The rats, anaesthetised with equitensin 3 ml/kg i.p., were placed in a supine position and, via an incision of about 10 mm in the abdominal wall, the urinary bladder was exposed and gently freed from surrounding tissues.
The urinary bladder was emptied manually and cannulated, via a small incision at the bladder top, with a polyethylene cannula (type PE-50, 0.58 mm I.D. ×0.96 mm O.D.), which was permanently secured to the bladder with silk thread.
The cannula was exposed through a subcutaneous tunnel in the retroscapular area, where it was fastened with a plastic adapter, in order to avoid the risk of removal by the animal. After washing the urinary bladder with physiological saline, the catheter was sealed using a small flame and the abdominal incision was sutured.
To allow evaluation of the effect of a test compound after intravenous administration, the jugular vein was cannulated with a polyethylene cannula (type PE-50, 0.58 mm I.D.×0.96 mm O.D.) filled with heparinised physiological saline. As for the bladder catheter, this cannula, too, was exteriorised, secured and sealed in the retroscapular area.
Two days after the operation, the rats, fasted overnight, were placed in Bollman's cages or in Bollman's cages modified so as to have an opening in the bottom to allow collection of urinated fluid.
After an adaptation period of 20 minutes, the free end of the bladder cannula was connected to a pressure transducer and a special apparatus which allowed infusion into the urinary bladder of physiological saline at 37° C. at a constant rate of 10 ml/hour. Intravesical pressure changes caused by bladder filling were recorded by the pressure transducer which was connected to a recording polygraph.
From the cystometrograms, the frequency and mean amplitude of spontaneous bladder contractions not inducing micturition, termed “unstable-bladder contractions” (UBC), within 2 minutes prior to micturition were evaluated. […]

[3] = biological target: T2, cloned α1b-adrenoceptor subtype (Homo sapiens, UniProt P35368); assay: Radioligand binding assay ([3H]prazosin), cloned α1b-adrenoceptor subtype; settings: read-out: Binding Affinity (Ki nM) α1b
T2 construct: expressed in transfected cells
T2 sequence (P35368 1-520): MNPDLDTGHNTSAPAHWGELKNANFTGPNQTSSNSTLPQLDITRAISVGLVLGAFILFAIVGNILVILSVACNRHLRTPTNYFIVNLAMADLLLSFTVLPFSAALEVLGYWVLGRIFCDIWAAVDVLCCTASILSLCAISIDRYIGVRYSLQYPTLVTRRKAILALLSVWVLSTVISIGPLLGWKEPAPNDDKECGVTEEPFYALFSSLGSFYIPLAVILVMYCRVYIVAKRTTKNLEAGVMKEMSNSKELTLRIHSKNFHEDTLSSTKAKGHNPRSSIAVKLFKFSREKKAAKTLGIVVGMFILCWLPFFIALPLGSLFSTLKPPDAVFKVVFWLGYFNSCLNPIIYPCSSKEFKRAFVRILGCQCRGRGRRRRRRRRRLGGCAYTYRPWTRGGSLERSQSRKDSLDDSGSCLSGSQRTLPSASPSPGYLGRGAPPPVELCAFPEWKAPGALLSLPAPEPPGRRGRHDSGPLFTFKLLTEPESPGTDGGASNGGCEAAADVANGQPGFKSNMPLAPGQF
Procedure: as §1, §2, §3

[4] = biological target: T3, cloned α1d-adrenoceptor subtype (Homo sapiens, UniProt P25100); assay: Radioligand binding assay ([3H]prazosin), cloned α1d-adrenoceptor subtype; settings: read-out: Binding Affinity (Ki nM) α1d
T3 construct: expressed in transfected cells
T3 sequence (P25100 1-572): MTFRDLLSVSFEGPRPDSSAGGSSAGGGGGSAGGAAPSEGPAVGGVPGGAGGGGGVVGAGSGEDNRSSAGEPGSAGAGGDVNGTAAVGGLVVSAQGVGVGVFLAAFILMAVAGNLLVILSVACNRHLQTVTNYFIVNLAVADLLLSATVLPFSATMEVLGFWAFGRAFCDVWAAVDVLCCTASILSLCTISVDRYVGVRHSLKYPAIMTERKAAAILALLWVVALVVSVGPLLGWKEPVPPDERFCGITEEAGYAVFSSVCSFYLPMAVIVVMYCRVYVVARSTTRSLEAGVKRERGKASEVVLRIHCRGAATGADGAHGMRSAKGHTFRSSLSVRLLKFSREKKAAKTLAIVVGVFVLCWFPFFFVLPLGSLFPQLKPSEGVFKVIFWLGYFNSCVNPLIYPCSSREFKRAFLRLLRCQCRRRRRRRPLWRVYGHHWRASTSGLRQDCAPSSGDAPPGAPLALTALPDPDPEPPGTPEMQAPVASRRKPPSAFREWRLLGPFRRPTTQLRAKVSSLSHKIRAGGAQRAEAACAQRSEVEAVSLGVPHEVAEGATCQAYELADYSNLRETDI
Procedure: as §1, §2, §3

LUTS = LUTS secondary to BPH; relaxing effects on prostate smooth muscle were present; cited from earlier work
[5] = obstructed rat, 1 mg/kg, 2 minutes before micturition, read-out: % inhibition of amplitude of non-effective micturition contractions
[6] = obstructed rat, 1 mg/kg, 2 minutes before micturition, read-out: % inhibition of frequency of non-effective micturition contractions
[7] = cloned receptor, cell membranes, 0.2 nM [3H]prazosin, mean Ki
[8] = Rattus norvegicus, read-out: % inhibition of amplitude of non-effective micturition contractions
[9] = Rattus norvegicus, read-out: % inhibition of frequency of non-effective micturition contractions

Row | SMILES | Ki [1] [nM] | inhibition in vivo at 1 mg/kg [2, 5] [%] | inhibition in vivo at 1 mg/kg [2, 6] [%] | Amplitude of non-effective micturition contractions, After Treat. ([2]; 1.0 mg/kg) [mmHg] | Frequency (number) of non-effective micturition contractions, After Treat. ([2]; 1.0 mg/kg) | Activity as inhibitors of unstable-bladder contractions (in words) [2] | Ki [3, 7] [nM] | Ki [4] [nM] | Ki [3] [nM] | Relief of LUTS in clinical trial (LUTS) | inhibition in vivo at 1 mg/kg [2, 8] [%] | inhibition in vivo at 1 mg/kg [2, 9] [%] | inhibition in vivo at 3 mg/kg [2, 8] [%] | inhibition in vivo at 3 mg/kg [2, 9] [%] | Amplitude of non-effective micturition contractions, After Treat. ([2]; 3.0 mg/kg) [mmHg] | Frequency (number) of non-effective micturition contractions, After Treat. ([2]; 3.0 mg/kg)
1 | COc1ccc(Cl)cc1N1CCN(CCCNC(=O)c2c(-c3ccccc3)noc2C)CC1 [Compound B, N-{3-[4-(5-Chloro-2-methoxyphenyl)-1-piperazinyl]propyl}-5-methyl-3-phenylisoxazole-4-carboxamide] | 0.8 | 44 | 49 | 4.2 ± 1.0 | 3.0 ± 0.7 | more potent | 23.6 | 2.7 | – | – | – | – | – | – | – | –
2 | Cc1onc(-c2ccccc2Cl)c1C(=O)NCCCN1CCN(c2ccccc2OCC(F)(F)F)CC1 [Compound D, 3-(2-chlorophenyl)-5-methyl-N-{3-[4-[2-(2,2,2-trifluoroethoxy)phenyl]-1-piperazinyl]propy}isoxazole-4-carboxamide] | 0.07 | 73 | 68 | 2.1 ± 0.7 | 1.7 ± 0.8 | more potent | – | 0.49 | 14.1 | – | – | – | – | – | – | –
3 | COc1ccccc1N1CCN(CCCNC(=O)c2cccc3c(=O)c(C)c(-c4ccccc4)oc23)CC1 [Rec 15/2739] | – | – | – | 7.3 ± 1.3 | 4.8 ± 0.2 | poorly active | – | – | – | did not result in relief of LUTS | 29 | 28 | – | – | – | –
4 | Cc1onc(-c2ccccc2)c1C(=O)NCCCN1CCN(c2ccc(F)cc2OCC(F)(F)F)CC1 [Rec 27/0110] | 0.35 | – | – | 6.0 ± 1.4 | 4.4 ± 0.8 | poorly active | 69 | 18.9 | – | – | 21 | 27 | 53 | 49 | 2.3 ± 0.8 | 2.2 ± 0.7
